PubChem BioAssay AID192 (DTP/NCI, 2004)
Values joined by “and” are separate entries in the source; they are usually repeats but may differ in a detail not shown here. Equal entries are not always repeated. Inconclusive results and toxic doses are left out. Rule for the calls: active = survival T/C of 150% or more; inactive = T/C below 125% in these data. Peptide text beside a SMILES is read from it.

Test system: BDF1 mice, B16 melanoma ip, median survival T/C
Test: NCI In Vivo Anticancer Drug Screen. Data for tumor model B16 Melanoma (intraperitoneal) in B6D2F1 (BDF1) mice
Conditions: endpoint: median survival time, higher = longer survival
Summary of the method: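 The ratio T/C compares compound-treated mice with vehicle-treated controls, using survival or tumor size as the endpoint in a transplantable tumor model.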

[1] = dose: 50.0 mg/kg/injection, schedule: Q01DX009 (ip), vehicle: saline
[2] = dose: 100.0 mg/kg/injection, schedule: Q01DX009 (ip), vehicle: saline
[3] = dose: 200.0 mg/kg/injection, schedule: Q01DX009 (ip), vehicle: saline
[4] = dose: 400.0 mg/kg/injection, schedule: Q01DX009 (ip), vehicle: saline
[5] = dose: 100.0 mg/kg/injection, schedule: Q01DX009 (ip), vehicle: Klucel (hydroxypropylcellulose) (HPC)

Measured: T/C

NC(Cc1cc(I)c(O)c(I)c1)C(=O)O (centres undefined)
inactive: dose: 25.0 mg/kg/injection, schedule: Q01DX009 (ip), vehicle: saline 106 % of control | [1] 112 % of control | dose: 100.0 mg/kg/injection, schedule: Q01DX009 (ip), vehicle: carboxymethylcellulose (CMC) 108 % of control | [2] 116 % of control | dose: 200.0 mg/kg/injection, schedule: Q01DX009 (ip), vehicle: carboxymethylcellulose (CMC) 115 % of control | [3] 110 % of control | [4] 100 % of control

CC(=O)CC(C)(C)C1CCCCC1
inactive: dose: 12.5 mg/kg/injection, schedule: Q01DX009 (ip), vehicle: water 107 % of control | dose: 25.0 mg/kg/injection, schedule: Q01DX009 (ip), vehicle: water 98 % of control | dose: 50.0 mg/kg/injection, schedule: Q01DX009 (ip), vehicle: water 95 % of control | dose: 100.0 mg/kg/injection, schedule: Q01DX009 (ip), vehicle: water 102 % of control | dose: 200.0 mg/kg/injection, schedule: Q01DX009 (ip), vehicle: water 88 % of control

c1ccc(-c2cnoc2-c2ccccc2)cc1
inactive: dose: 50.0 mg/kg/injection, schedule: Q01DX009 (ip), vehicle: Klucel (hydroxypropylcellulose) (HPC) 100 % of control | [5] 107 % of control | dose: 200.0 mg/kg/injection, schedule: Q01DX009 (ip), vehicle: Klucel (hydroxypropylcellulose) (HPC) 100 % of control

C1CCC2[N-]CC3CCCCC3[N-]CC3CCCCC3[N-]CC3CCCCC3[N-]CC2C1.[Cu+2].[O-][Cl+3]([O-])([O-])O (centres undefined)
active: dose: 3.12 mg/kg/injection, schedule: Q01DX009 (ip), vehicle: Klucel (hydroxypropylcellulose) (HPC) 153 % of control | dose: 6.25 mg/kg/injection, schedule: Q01DX009 (ip), vehicle: Klucel (hydroxypropylcellulose) (HPC) 161 % of control | dose: 12.5 mg/kg/injection, schedule: Q01DX009 (ip), vehicle: Klucel (hydroxypropylcellulose) (HPC) 164 % of control

CC(C)CC(NC(=O)OCc1ccccc1)C(=O)NC(Cc1c[nH]c2ccccc12)C(=O)O (centres undefined)
inactive: dose: 50.0 mg/kg/injection, schedule: Q01DX009 (ip), vehicle: saline with Tween-80 90 % of control | dose: 100.0 mg/kg/injection, schedule: Q01DX009 (ip), vehicle: saline with Tween-80 96 % of control | dose: 200.0 mg/kg/injection, schedule: Q01DX009 (ip), vehicle: saline with Tween-80 96 % of control | dose: 400.0 mg/kg/injection, schedule: Q01DX009 (ip), vehicle: saline with Tween-80 98 % of control

O=C(COc1ccc(Cl)cc1)Nc1ccccc1C(F)(F)F
inactive: dose: 100.0 mg/kg/injection, schedule: Q04DX003 (ip), vehicle: Klucel (hydroxypropylcellulose) (HPC) 90 % of control | dose: 200.0 mg/kg/injection, schedule: Q04DX003 (ip), vehicle: Klucel (hydroxypropylcellulose) (HPC) 92 % of control | dose: 400.0 mg/kg/injection, schedule: Q04DX003 (ip), vehicle: Klucel (hydroxypropylcellulose) (HPC) 90 % of control

CC(=O)[O][Pb]([CH2]C(C)C)([CH2]C(C)C)[CH2]C(C)C
inactive: dose: 0.09 mg/kg/injection, schedule: Q01DX009 (ip), vehicle: Klucel (hydroxypropylcellulose) (HPC) 94 % of control | dose: 0.19 mg/kg/injection, schedule: Q01DX009 (ip), vehicle: Klucel (hydroxypropylcellulose) (HPC) 98 % of control | dose: 0.38 mg/kg/injection, schedule: Q01DX009 (ip), vehicle: Klucel (hydroxypropylcellulose) (HPC) 93 % of control | dose: 0.75 mg/kg/injection, schedule: Q01DX009 (ip), vehicle: Klucel (hydroxypropylcellulose) (HPC) 88 % of control and 98 % of control

CC(NC(=O)C(C)NC(=O)C(N)CCC(=O)O)C(=O)O (stereo not drawn) (H-Glu-Ala-Ala-OH; configuration not given here)
inactive: [1] 111 % of control | [2] 96 % of control | [3] 105 % of control | [4] 94 % of control

NC1=C(N2CC2)C(=O)C(N)=C(N2CC2)C1=O
inactive: dose: 6.0 micrograms/kg/injection, schedule: Q01DX009 (ip), vehicle: saline 112 % of control | dose: 12.5 micrograms/kg/injection, schedule: Q01DX009 (ip), vehicle: saline 112 % of control | dose: 25.0 micrograms/kg/injection, schedule: Q01DX009 (ip), vehicle: saline 105 % of control | dose: 50.0 micrograms/kg/injection, schedule: Q01DX009 (ip), vehicle: saline 120 % of control | dose: 200.0 micrograms/kg/injection, schedule: Q01DX009 (ip), vehicle: saline 124 % of control

CC(=O)CC(=O)Nc1cccc([N+](=O)[O-])c1
inactive: dose: 25.0 mg/kg/injection, schedule: Q01DX009 (ip), vehicle: Klucel (hydroxypropylcellulose) (HPC) 100 % of control | [5] 94 % of control

COC(CCC(C)C1OC23CC(OC(=O)CC(C(C)O)OC(=O)CC(O)(O2)C(C)CC3(C)C)C1C)c1cccc(O)c1 (centres undefined)
inactive: dose: 12.5 micrograms/kg/injection, schedule: Q01DX009 (ip), vehicle: other 103 % of control | dose: 25.0 micrograms/kg/injection, schedule: Q01DX009 (ip), vehicle: other 101 % of control | dose: 50.0 micrograms/kg/injection, schedule: Q01DX009 (ip), vehicle: other 97 % of control | dose: 100.0 micrograms/kg/injection, schedule: Q01DX009 (ip), vehicle: other 101 % of control
